Data taken from ChEMBL document CHEMBL1122462, “Potential antiatherosclerotic agents. 4. [(Functionalized-alkyl)amino]benzoic acid analogues of cetaben” (1983).
Where “and” joins values, the source holds several entries; their conditions need not be identical. Equal values may be shown once.

What was measured:
[1] = molecular target: T1, Sterol O-acyltransferase 1 (Rattus norvegicus) (UniProt O70536); assay: In vitro inhibitory activity against acyl coenzyme A:cholesterol acyltransferase; set-up: concentration or dose not given beside the values; conditions: concentration not given here
T1 sequence (whole entry): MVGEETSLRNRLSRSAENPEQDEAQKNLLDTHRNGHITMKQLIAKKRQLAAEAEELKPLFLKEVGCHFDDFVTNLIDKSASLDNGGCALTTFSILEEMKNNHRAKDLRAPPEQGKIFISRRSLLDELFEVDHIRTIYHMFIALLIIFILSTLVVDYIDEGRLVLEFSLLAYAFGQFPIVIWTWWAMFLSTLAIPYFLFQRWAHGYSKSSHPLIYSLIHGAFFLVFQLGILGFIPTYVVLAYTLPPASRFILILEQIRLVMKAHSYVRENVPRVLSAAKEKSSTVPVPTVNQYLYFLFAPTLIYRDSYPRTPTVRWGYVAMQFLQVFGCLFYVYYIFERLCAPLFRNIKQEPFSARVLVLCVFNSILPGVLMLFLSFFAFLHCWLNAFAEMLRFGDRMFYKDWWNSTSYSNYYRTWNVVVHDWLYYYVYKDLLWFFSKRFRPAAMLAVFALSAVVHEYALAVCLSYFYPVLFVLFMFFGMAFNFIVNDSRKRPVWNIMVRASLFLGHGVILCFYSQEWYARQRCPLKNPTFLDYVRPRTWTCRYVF

Rattus norvegicus [2] = assay: In vivo Triglyceride lowering activity at dose as 0.01 % of the diet.; assay type: functional
Rattus norvegicus [3] = assay: In vivo Triglyceride lowering activity at dose as 0.10 % of the diet.; assay type: functional
Rattus norvegicus [4] = assay: In vivo Sterol lowering activity at dose as 0.01 % of the diet.; assay type: functional
Rattus norvegicus [5] = assay: In vivo Sterol lowering activity at dose as 0.03 % of the diet.; assay type: functional
Rattus norvegicus [6] = assay: In vivo Triglyceride lowering activity at dose as 0.03 % of the diet.; assay type: functional
Rattus norvegicus [7] = assay: In vivo Sterol lowering activity at dose as 0.10 % of the diet.; assay type: functional
Rattus norvegicus [8] = assay: In vivo Triglyceride lowering activity at a dose of 0.10 % of the diet; assay type: functional
Rattus norvegicus [9] = assay: In vivo Triglyceride lowering activity at dose as 0.03 % of the diet; assay type: functional
Rattus norvegicus [10] = assay: In vivo sterol lowering activity, dosed as 0.03 % of the diet; assay type: functional
Rattus norvegicus [11] = assay: In vivo sterol lowering activity at dose of 0.10 % of the diet; assay type: functional
Rattus norvegicus [12] = assay: In vivo Triglyceride lowering activity at dose as 0.01 % of the diet; assay type: functional

Row | inhibition [1] | SMILES | Diet (Rattus norvegicus [2]) | Diet (Rattus norvegicus [3]) | Diet (Rattus norvegicus [4]) | Diet (Rattus norvegicus [5]) | Diet (Rattus norvegicus [6]) | Diet (Rattus norvegicus [7]) | serum triglyceride level (% of control) (Rattus norvegicus [8]) | triglyceride lowering activity (Rattus norvegicus [9]) | serum sterol level, percent of control (Rattus norvegicus [10]) | serum sterol level, % of control (Rattus norvegicus [11]) | serum triglyceride level (% of control) (Rattus norvegicus [12])
1 | 4% | O=C(O)CCCCCNc1ccc(C(=O)O)cc1 | 85% | 102% | 92% | 100% | 91% | 105% | – | – | – | – | –
2 | 6% and 0% | O=C(O)CCNc1ccc(C(=O)O)cc1 | 97% | – | 101% | 118% | 108% | 100% | 72% | – | – | – | –
3 | 0% | O=C(O)CCCNc1ccc(C(=O)O)cc1 | – | 86% | – | – | – | 99% | – | – | – | – | –
4 | 14% | O=C(O)CN(CC(=O)O)c1ccc(C(=O)O)cc1 | 92% | 100% | 95% | 89% | 84% | 91% | – | – | – | – | –
5 | 1% | O=C(O)c1ccc(NCC2CCCCC2)cc1 | – | – | 95% | – | – | – | 62% | 71% | 84% | 83% | 73%
6 | 44% | CCCC(Nc1ccc(C(=O)OCC)cc1)C(=O)OCC (stereo unspecified) | 93% | 77% | 103% | 109% | 96% | 102% | – | – | – | – | –
7 | 0% | CCCC(Nc1ccc(C(=O)O)cc1)C(=O)O (stereo unspecified) | 93% | – | 95% | – | 74% | – | – | – | 87% | – | –

Second part, the molecule before the results:

Row | SMILES | inhibition [1] | Diet (Rattus norvegicus [2]) | Diet (Rattus norvegicus [3]) | Diet (Rattus norvegicus [4]) | Diet (Rattus norvegicus [5]) | Diet (Rattus norvegicus [6]) | Diet (Rattus norvegicus [7]) | serum triglyceride level (% of control) (Rattus norvegicus [8]) | triglyceride lowering activity (Rattus norvegicus [9]) | serum sterol level, percent of control (Rattus norvegicus [10]) | serum sterol level, % of control (Rattus norvegicus [11]) | serum triglyceride level (% of control) (Rattus norvegicus [12])
8 | N#CCCCNc1ccc(C(=O)O)cc1 | 8% | – | 93% | – | – | – | 94% | – | – | – | – | –
9 | O=C(O)CNc1ccc(C(=O)O)cc1 | 18% | 90% | 106% | 89% | 87% | 93% | 98% | – | – | – | – | –
10 | CCOC(=O)CCNc1ccc(C(=O)OCC)cc1 | 28% | 109% | 103% | 97% | 100% | 98% | 94% | – | – | – | – | –
11 | CCOC(=O)CNc1ccc(C(=O)OCC)cc1 | 24% | 109% | 121% | 90% | 100% | 114% | 100% | – | – | – | – | –
12 | CCOC(=O)CN(CC(=O)OCC)c1ccc(C(=O)OCC)cc1 | 32% | 77% | 122% | 93% | 98% | 120% | 100% | – | – | – | – | –
13 | CCOC(=O)CCCNc1ccc(C(=O)OCC)cc1 | 11% | – | 103% | – | – | – | 93% | – | – | – | – | –
14 | O=C(O)c1ccc(NCCC2CCCC2)cc1 | – | 78% | – | 92% | 94% | 83% | 88% | 64% | – | – | – | –
15 | CCOC(=O)c1ccc(NC(=O)CCC(=O)OC)cc1 | 2% | 99% | 114% | 86% | 99% | 92% | 97% | – | – | – | – | –
16 | CCOC(=O)CCCCCNc1ccc(C(=O)OCC)cc1 | 18% | 68% | 71% | 96% | 92% | 72% | 84% | – | – | – | – | –
17 | CCOC(=O)c1ccc(NCCCC#N)cc1 | 26% | 131% | 97% | 116% | 118% | 113% | 109% | – | – | – | – | –
18 | CCOC(=O)c1ccc(NC(C)C(=O)OCC)cc1 (stereo unspecified) | 23% | 123% | 82% | 107% | 93% | 110% | 107% | – | – | – | – | –
